Counter-ions that a name gives are not always drawn. Like-named read-outs stand apart in the source and are kept apart here. One block for each compound: values may come before it.
Key:
[1] = male beagle
Procedure: Four smaller pieces were randomly cut from the remainder and placed into weighed vials. Distilled water (10 ml) was added to each vial and the contents were allowed to dissolve overnight. Triplicate aliquots (0.1 ml) were removed for the determination of radioactivity as for plasma.
The evacuated suppository was separated from the faecal pellet and weighed. The sample was then homogenised with a known quantity of purified sand (sand to sample ratio, 2:1).
Four pieces of the sand/suppository mixture were placed in weighed vials. Distilled water (4 ml) was added to each vial and the contents were allowed to dissolve overnight. Unisolve 1 (10 ml) was added and the resulting translucent gel was mixed by vigorous shaking. The samples were assayed for radioactivity.
They were then re-weighed and the moisture content of the evacuated suppository was determined.

[2] = In vitro trial: drug release from extruded suppositories in 150 ml water at 37° C.; assay type: physicochemical; settings: phenylephrine hydrochloride vs lignocaine hydrochloride, alone and together (FIGS. 6-8)
Procedure: Mixes for the in vivo and the in vitro trails were made by dissolving the required quantities of drug in water which was then added to the polymer and thoroughly mixed using a spatula. […] The resulting damp, spongy particles were squeezed together by hand to form a dough-like mixture. The mixes were extruded through a nozzle of a 50 ml plastic syringe to form a long rod (9 mm diameter). Immediately after, suppositories were made by cutting the rod into 3 cm length and were stored in an air-tight container prior to use.
Drug release rates were studied in four ways:
(i) release from suppositories containing 20 mg phenylephrine hydrochloride only (in duplicate).
(iii) release from suppositories containing both drugs in the above amounts (in triplicate).
The concentration of drug in the aliquot was immediately determined spectrophotometrically (q.v.) after which the aliquot sample was returned to the solution. […]
Analytical background effects (due to the polymer) were measured by repeating the spectrophotometric procedure using a suppository containing no drug. […]
The absorbences of the samples taken during the in vitro trial were measured on the spectrophotometer and the concentrations of the dissolved drugs determined by reference to the calibration curves.
Drug release rates were measured in the in vitro trials for suppositories containing each drug alone and both drugs together. […]

[3] = male beagle, rectal, dose 38.93 μCi

Compound: [^14 C]-lignocaine hydrochloride
time of maximum plasma concentration of radioactivity (dog, rectal): 8 h
maximum plasma concentration of radioactivity (dog, rectal, at 8 h): 0.00295 %/ml of the administered radioactive dose
% total administered dose, liver (male beagle, 48 h): 0.36%
% total administered dose, rectal contents (male beagle, 48 h): 0.086%
% total administered dose, rectum (male beagle, 48 h): 0.026%
cumulative % total administered dose, through liver (male beagle, 48 h): 0.375%
cumulative % total administered dose, through rectal contents (male beagle, 48 h): 0.487%
cumulative % total administered dose, through rectum (male beagle, 48 h): 0.401%
cumulative % total administered dose, through urine and faeces (male beagle, 48 h): 48.687%
total radioactivity recovered, bile (male beagle, 48 h): 0.006 μCi
total radioactivity recovered, liver (male beagle, 48 h): 0.14 μCi
total radioactivity recovered, rectal contents (male beagle, 48 h): 0.03 μCi
total radioactivity recovered, rectum (male beagle, 48 h): 0.01 μCi
total radioactivity recovered, urine and faeces (male beagle, 48 h): 18.77 μCi
concentration of radioactivity in plasma (male beagle, rectal, 0 h): 0 % administered radioactive dos
radioactive drug equivalents in plasma (male beagle, rectal, 0 h): 0 μg equivalents/ml plasma
concentration of radioactivity in plasma (male beagle, rectal, 0.5 h): 0.00081 % administered radioactive dos
radioactive drug equivalents in plasma (male beagle, rectal, 0.5 h): 0.75 μg equivalents/ml plasma
concentration of radioactivity in plasma (male beagle, rectal, 1 h): 0.0014 % administered radioactive dos
radioactive drug equivalents in plasma (male beagle, rectal, 1 h): 1.33 μg equivalents/ml plasma
concentration of radioactivity in plasma (male beagle, rectal, 2 h): 0.0022 % administered radioactive dos
radioactive drug equivalents in plasma (male beagle, rectal, 2 h): 2.08 μg equivalents/ml plasma
concentration of radioactivity in plasma (male beagle, rectal, 4 h): 0.00291 % administered radioactive dos
radioactive drug equivalents in plasma (male beagle, rectal, 4 h): 2.72 μg equivalents/ml plasma
concentration of radioactivity in plasma (male beagle, rectal, 8 h): 0.00295 % administered radioactive dos
radioactive drug equivalents in plasma (male beagle, rectal, 8 h): 2.75 μg equivalents/ml plasma
concentration of radioactivity in plasma (male beagle, rectal, 24 h): 0.00267 % administered radioactive dos
radioactive drug equivalents in plasma (male beagle, rectal, 24 h): 2.49 μg equivalents/ml plasma
concentration of radioactivity in plasma (male beagle, rectal, 48 h): 0.00062 % administered radioactive dos
radioactive drug equivalents in plasma (male beagle, rectal, 48 h): 0.58 μg equivalents/ml plasma
total radioactivity excreted, total (male beagle, rectal, 48 h, dose 38.93 μCi): 18.77 μCi
total radioactivity excreted, 0-24 h urine [3]: 13.45 μCi
total radioactivity excreted, 24-48 h urine [3]: 2.19 μCi
total radioactivity excreted, total faeces [3]: 3.13 μCi
% total administered dose in evacuated suppository [1]: 27.58%
radioactive dose remaining in evacuated suppository ([1]; dose 38.93 μCi): 10.74 μCi

proportion of drug released, comparison of drugs [2]: approximately the same
Compound: CNC[C@H](O)c1cccc(O)c1 [phenylephrine hydrochloride]

Compound: CCN(CC)CC(=O)Nc1c(C)cccc1C [lignocaine hydrochloride]
proportion of drug released, comparison of drugs [2]: approximately the same
